Experimental data published in patent US8637246B2, “BRAF mutations conferring resistance to BRAF inhibitors” (Dana-Farber Cancer Institute, Inc., priority 2010, dated 2014).

Columns and labels:
[1] = test system: A375 cells expressing a wild-type BRAF polypeptide
[2] = test system: A375 cells expressing a mutant BRAF polypeptide; conditions: A375 cells expressing a mutant BRAF polypeptide with one or more listed resistance mutations (A29V ... C748F)
[3] = target: BRAF V600E-P686Q (Homo sapiens, UniProt P15056, P686Q/V600E); experiment: Western blot of p-MEK1/2 and p-ERK1/2 in transfected 293T cells (BRAF V600E-P686Q); type: cell-based; conditions: 293T cells transfected with BRAF V600E-P686Q; 0, 0.08, 0.4, 2, 5 and 10 μM for 16 hours; immunoblot (FIG. 8)
Experimental: (§1) 293T cells were transfected with 6 μg of pWZL(BLAST)-BRAF for each putative resistance allele and subsequently treated with a range of concentrations of the BRAF(V600E) inhibitor PLX4720 (0, 0.08, 0.4, 2, 5 and 10 μM) for 16 hours. Immunoblot studies were performed using standard procedures. Briefly, the treated cells were lysed with TNN buffer containing protease inhibitor (Roche), NaF and NaVO3 (1 mM each). Lysates were quantified (Bradford assay), denatured (95° C.), and resolved by SDS gel electrophoresis. Proteins was transferred to nitrocellulose membranes and probed with primary antibodies recognizing BRAF (Santa Cruz; 1:10,000 dilution), p-ERK1/2, p-MEK1/2 (Ser-217/221), and α-tubulin (Cell Signaling Technology; 1:1,000 dilution). After incubation with the appropriate secondary antibody (anti-rabbit or anti-mouse IgG, HRP-linked; 1:1,000 dilution) (Cell Signaling Technology), proteins were detected using chemiluminescence (Pierce).

[4] = target: BRAF-V600E-T521K (Homo sapiens, UniProt P15056, T521K/V600E); experiment: Western blot of p-MEK1/2 and p-ERK1/2 in transfected 293T cells (BRAF-V600E-T521K); type: cell-based; conditions: 293T cells transfected with BRAF-V600E-T521K; 0, 0.08, 0.4, 2, 5 and 10 μM for 16 hours; immunoblot (FIG. 8)
Experimental: as §1

Chain of BRAF-V600E-T521K (P15056 whole entry T521K/V600E): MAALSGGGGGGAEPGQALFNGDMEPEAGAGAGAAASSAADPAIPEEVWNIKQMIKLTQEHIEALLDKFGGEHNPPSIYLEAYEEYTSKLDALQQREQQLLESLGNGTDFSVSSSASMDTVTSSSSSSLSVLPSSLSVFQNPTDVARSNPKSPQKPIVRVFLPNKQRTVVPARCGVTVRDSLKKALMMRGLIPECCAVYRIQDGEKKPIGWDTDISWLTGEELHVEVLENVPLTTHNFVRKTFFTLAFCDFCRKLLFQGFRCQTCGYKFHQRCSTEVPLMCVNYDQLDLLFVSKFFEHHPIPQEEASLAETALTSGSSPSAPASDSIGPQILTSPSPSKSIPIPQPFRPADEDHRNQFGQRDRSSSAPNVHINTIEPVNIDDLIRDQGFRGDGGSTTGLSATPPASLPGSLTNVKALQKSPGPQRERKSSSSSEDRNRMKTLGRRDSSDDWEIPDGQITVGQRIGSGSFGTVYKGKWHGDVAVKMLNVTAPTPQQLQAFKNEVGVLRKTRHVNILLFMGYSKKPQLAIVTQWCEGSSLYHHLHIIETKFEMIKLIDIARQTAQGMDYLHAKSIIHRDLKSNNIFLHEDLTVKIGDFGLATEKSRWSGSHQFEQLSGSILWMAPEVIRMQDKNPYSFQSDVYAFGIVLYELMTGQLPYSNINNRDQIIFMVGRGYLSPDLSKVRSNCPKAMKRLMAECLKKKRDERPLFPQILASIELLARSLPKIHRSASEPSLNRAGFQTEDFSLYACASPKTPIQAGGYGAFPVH
Chain of BRAF V600E-P686Q (P15056 whole entry V600E/P686Q): as the sequence (P15056 whole entry T521K/V600E) above, with K521T, P686Q counted along it

| increase in phosphorylated MEK1/2 and ERK1/2 in the presence of increasing concentrations of inhibitor [3] | increase in phosphorylated MEK1/2 and ERK1/2 in the presence of increasing concentrations of inhibitor [4] | Compound | sensitivity of cells to the RAF inhibitor [1] | sensitivity of cells to the RAF inhibitor [2] |
| --- | --- | --- | --- | --- |
|  |  | Cn1c(Nc2ccc(C(F)(F)F)cc2)nc2cc(Oc3ccnc(-c4ncc(C(F)(F)F)[nH]4)c3)ccc21 [RAF-265] | sensitive | resistant |
| sustained | sustained | CCCS(=O)(=O)Nc1ccc(F)c(C(=O)c2c[nH]c3ncc(Cl)cc23)c1F [PLX4720] |  |  |
